Results on eleven compounds are retold here after US8765746B2 (Millennium Pharmaceuticals, Inc., priority 2010, dated 2014).

Where only a bound is given, the exact number is not on record here.

Common to all, as to assay type: biochemical
Test [1] addresses T1, PI3Kalpha (Homo sapiens, UniProt P42336).
T1 construct: His (N); host or cells: SF9 insect cells (baculovirus)
Put plainly: Human PI3Kα enzyme assay (HTRF). Conditions: for inhibition at 1.11 µM: read-out: PI3Kalpha % inh; for PI3Kalpha % inh: at 1.11 μM. In a few lines: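 His-tagged p110α co-expressed with p85 in Sf9 cells was reacted for 30 min at room temperature in pH 7.00 Hepes buffer with 10 mM MgCl2. Addition solutions held 25 uM ATP, 3.5 uM di-C8 PI(4,5)P2 and 0.4875 nM enzyme. The reaction was quenched with EDTA/biotin-PIP3 and detected by HTRF (GST-GRP-1 PH domain, streptavidin-XL, Eu anti-GST) after 1 h.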

For test [2], the target named is T2, PI3Kbeta (Homo sapiens, UniProt P42338).
T2 construct: His (N); host or cells: SF9 insect cells (baculovirus)
Put plainly: Human PI3K beta enzyme assay (HTRF, as for PI3K alpha). Conditions: for inhibition at 1.11 µM: read-out: PI3Kbeta % inh; for IC50: read-out: IC50 (inhibit PI3Kbeta); for inhibition at 1.11 µM / PI3Kbeta % inh: at 1.11 μM. In outline:
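N-His p110β/δ co-expressed with untagged p85 in Sf9, p110γ alone. Enzyme 5.25 nM (β), 0.75 nM (δ), 5 nM (γ), with ATP 25 uM and di-C8 PI(4,5)P2 3.5 uM (added-solution levels), pH 7.00, 30 min RT. HTRF read-out: biotin-PIP3, GST-GRP-1 PH domain, Eu anti-GST, streptavidin-XL.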
Background: Time-resolved FRET reads energy transfer from a long-lived donor to a nearby acceptor.

The target of test [3] is T3, PI3Kgamma (Homo sapiens, UniProt P48736).
T3 construct: His (N); host or cells: SF9 insect cells (baculovirus)
T3 sequence (P48736 whole entry): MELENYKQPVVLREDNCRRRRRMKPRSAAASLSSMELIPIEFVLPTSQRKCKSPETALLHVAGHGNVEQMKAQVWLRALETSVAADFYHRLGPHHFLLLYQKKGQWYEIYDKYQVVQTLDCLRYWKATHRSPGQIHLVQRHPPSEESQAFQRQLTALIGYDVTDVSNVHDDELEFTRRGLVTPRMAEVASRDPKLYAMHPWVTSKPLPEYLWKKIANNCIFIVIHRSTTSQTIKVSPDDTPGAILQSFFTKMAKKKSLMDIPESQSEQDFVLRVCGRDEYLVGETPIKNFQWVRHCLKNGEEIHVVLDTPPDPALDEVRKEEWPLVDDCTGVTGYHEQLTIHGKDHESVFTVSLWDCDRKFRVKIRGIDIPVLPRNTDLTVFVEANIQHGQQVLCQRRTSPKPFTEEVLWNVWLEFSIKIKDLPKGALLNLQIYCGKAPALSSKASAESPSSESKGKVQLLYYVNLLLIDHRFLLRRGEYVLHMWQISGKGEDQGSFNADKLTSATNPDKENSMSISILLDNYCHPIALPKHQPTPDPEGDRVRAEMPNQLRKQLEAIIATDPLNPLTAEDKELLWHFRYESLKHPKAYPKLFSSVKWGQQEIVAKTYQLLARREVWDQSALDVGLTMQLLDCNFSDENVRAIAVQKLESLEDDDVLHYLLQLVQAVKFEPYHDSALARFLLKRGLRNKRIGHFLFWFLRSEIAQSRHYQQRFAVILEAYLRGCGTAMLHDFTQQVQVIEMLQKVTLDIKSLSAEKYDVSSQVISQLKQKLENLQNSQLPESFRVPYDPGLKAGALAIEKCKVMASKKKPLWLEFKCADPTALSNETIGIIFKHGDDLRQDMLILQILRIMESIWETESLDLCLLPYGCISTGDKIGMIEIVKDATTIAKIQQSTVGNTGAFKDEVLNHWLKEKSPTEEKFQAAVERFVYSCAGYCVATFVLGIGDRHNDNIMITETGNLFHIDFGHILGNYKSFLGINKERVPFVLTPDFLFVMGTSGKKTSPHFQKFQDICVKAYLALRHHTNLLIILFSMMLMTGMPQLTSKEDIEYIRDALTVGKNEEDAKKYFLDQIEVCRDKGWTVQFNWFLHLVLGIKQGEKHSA
In words: Human PI3K gamma enzyme assay (HTRF, as for PI3K alpha). Particulars: for inhibition at 1.11 µM: read-out: PI3Kgamma % inh; for PI3Kgamma % inh: at 1.11 μM. An excerpt:
(§1) The catalytic subunits of PI3Ks are cloned into either pDEST8(p110 alpha) or pDEST10(p110beta, p110delta, and p110gamma) as N-terminal His tagged fusion proteins using the Gateway system (Invitrogen, catalog#11804-010 for pDEST8 and 11806-015 for pDEST10). The sequences are verified before recombinant protein expression using the Baculovirus Expression System with Gateway® Technology. The accession numbers for the subunits are as follows:
(§2) The regulatory subunits of PI3Ks are cloned into pDEST8 as un-tagged protein using the Gateway system (Catalog#11804-010). The sequences are verified before recombinant protein expression using the Baculovirus Expression System with Gateway® Technology. The accession numbers for the subunits are as follows:
(§3) For expression of the p110 complexes, the p85 (MOI of 4) is co-infected with p110 alpha, beta, and delta respectively (1MOI) in SF9 cells and harvested at 60 hours post co-infection. P110 gamma was infected at 1 MOI and harvested at 60 hours post infection.
(§4) For purification, PI3Ks are purified by Ni-NTA Agarose (Qiagen #30250) followed by Mono Q 10/100 GL (Ge Healthcare #17-5167-01). VPS34 is purified by Glutathione Sepharose 4 Fast Flow (GE Healthcare #17-5132-03) followed by HiTrap Q (GE Healthcare #17-1153-01).
(§5) 0.5 uL compounds in DMSO are added to wells of a 384 well microtitre plate (Corning 3575). At room temperature: 10 ul PI3K reaction buffer (50 mM Hepes, 5 mM DTT, 150 mM NaCl, 10 mM beta-glycerophosphate, 10 mM MgCl2, 0.25 mM sodium cholate and 0.001% CHAPS, pH 7.00) containing ATP (25 uM, Promega) is added followed immediately by 10 ul PI3K reaction buffer containing di-C8 PI(4,5)P2 (3.5 uM, CellSignals) and PI3Kalpha (0.4875 nM, Millennium Protein Sciences Group) and the mixture is incubated with shaking at room temperature for 30 minutes. Then 5 ul PI3K stop mix (50 mM Hepes, 5 mM DTT, 150 mM NaCl, 0.01% Tween-20, 15 mM EDTA and 25 nM biotin-PI(3,4,5)P3 (Echelon) is added to quench the reaction followed immediately by addition of 5 ul HTRF detection mix (50 mM Hepes, 5 mM DTT, 150 mM NaCl, 0.01% Tween-20, 40 mM KF, 10 nM GST:GRP-1 PH domain (Millennium Protein Sciences Group), 15 nM Streptavidin-XL (CisBio) and 0.375 nM anti-GST Eu++ antibody (CisBio) at pH 7.00). The plates are then incubated for 1 hour at room temperature with shaking and then read on a BMG PheraStar Plus reader.
(§6) 2) Human PI3K beta, delta and gamma isoforms are tested using the procedure described for PI3K alpha above but with the following changes: PI3K beta (5.25 nM), PI3K delta (0.75 nM) and PI3K gamma (5 nM). All isoforms supplied by Millennium Protein Science Group.

Test [4] concerns the target T4, PI3Kdelta (Homo sapiens, UniProt O00329).
T4 construct: His (N); host or cells: SF9 insect cells (baculovirus)
Put plainly: Human PI3K delta enzyme assay (HTRF, as for PI3K alpha). Particulars: for inhibition at 1.11 µM: read-out: PI3Kdelta % inh; for PI3Kdelta % inh: at 1.11 μM.
Source text: as §1, §2, §3, §4, §5, §6

The target of test [5] is T5, VPS34 (Homo sapiens, UniProt Q8NEB9).
T5 construct: GST (N); host or cells: SF9 insect cells (baculovirus)
T5 sequence (Q8NEB9 whole entry): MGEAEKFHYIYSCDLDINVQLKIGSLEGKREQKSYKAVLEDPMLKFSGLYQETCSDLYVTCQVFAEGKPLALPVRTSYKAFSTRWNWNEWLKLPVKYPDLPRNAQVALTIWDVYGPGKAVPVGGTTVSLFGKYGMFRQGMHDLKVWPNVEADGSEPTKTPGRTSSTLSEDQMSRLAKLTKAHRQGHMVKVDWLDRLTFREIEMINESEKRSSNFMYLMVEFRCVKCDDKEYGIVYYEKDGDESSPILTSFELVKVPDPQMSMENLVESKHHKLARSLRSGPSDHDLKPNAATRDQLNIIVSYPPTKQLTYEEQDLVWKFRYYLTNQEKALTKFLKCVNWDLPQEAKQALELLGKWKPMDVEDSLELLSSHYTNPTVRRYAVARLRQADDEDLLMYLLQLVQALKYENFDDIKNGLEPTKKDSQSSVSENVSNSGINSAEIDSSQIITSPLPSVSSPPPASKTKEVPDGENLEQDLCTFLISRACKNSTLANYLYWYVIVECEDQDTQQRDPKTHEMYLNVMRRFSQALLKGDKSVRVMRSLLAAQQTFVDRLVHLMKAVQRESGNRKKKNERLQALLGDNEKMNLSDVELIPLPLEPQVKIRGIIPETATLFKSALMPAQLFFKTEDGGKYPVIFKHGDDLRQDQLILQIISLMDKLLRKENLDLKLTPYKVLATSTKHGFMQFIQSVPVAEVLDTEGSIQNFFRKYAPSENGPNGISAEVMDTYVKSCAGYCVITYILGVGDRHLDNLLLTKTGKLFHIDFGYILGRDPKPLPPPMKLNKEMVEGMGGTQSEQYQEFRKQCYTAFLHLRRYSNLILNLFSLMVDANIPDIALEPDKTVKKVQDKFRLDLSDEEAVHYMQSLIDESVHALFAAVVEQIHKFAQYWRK
Put plainly: Human VPS34 enzyme assay (Adapta Universal Kinase Assay). Conditions: for inhibition at 1.11 µM: 1 h, read-out: VPS34 % ihn; for VPS34 % ihn: at 1.11 μM. The method, then:
VPS34 (accession number GB:BC033004) is cloned into pDEST20-Thombin as N-terminal GST tagged fusion proteins using the Gateway system (Invitrogen, catalog#11804-013). The sequences are verified before recombinant protein expression using the Baculovirus Expression System with Gateway® Technology.
For expression VPS34 was infected at 1MOI in SF9 cells and harvested 72 hours post infection.
For purification, VPS34 is purified by Glutathione Sepharose 4 Fast Flow (GE Healthcare #17-5132-03) followed by HiTrap Q (GE Healthcare #17-1153-01).
3) VPS34 is assayed using Adapta™ Universal Kinase Assay Kit (Invitrogen).
4) Human VPS34 enzyme assay method
100 mL compounds in DMSO are added to wells of a 384 well microtitre plate (Greiner 780076). At room temperature: 5 ul VPS34 reaction buffer (Invitrogen Assay Buffer Q (diluted 1 in 5 with nanopure water) plus 2 mM DTT and 2 mM MnCl2) containing ATP (20 uM, Promega) and 200 uM PI-PS substrate (Invitrogen PV5122) is added followed immediately by 5 ul VPS34 reaction buffer (as above) containing VPS34 (5 nM, Millennium Protein Sciences Group) and the mixture is incubated with shaking at room temperature for 1 hour. Then 5 ul VPS34 stop-detect mix (as per Invitrogen Adapta Assay kit (PV5009) instructions (contains kinase quench buffer, TR-FRET buffer, Adapta Eu anti-ADP antibody and Alexa Fluor 647 ADP tracer)) is added to quench the reaction. The plates are then incubated for 30 minutes at room temperature with shaking and then read on a BMG PheraStar Plus reader.

T1 sequence (P42336 whole entry): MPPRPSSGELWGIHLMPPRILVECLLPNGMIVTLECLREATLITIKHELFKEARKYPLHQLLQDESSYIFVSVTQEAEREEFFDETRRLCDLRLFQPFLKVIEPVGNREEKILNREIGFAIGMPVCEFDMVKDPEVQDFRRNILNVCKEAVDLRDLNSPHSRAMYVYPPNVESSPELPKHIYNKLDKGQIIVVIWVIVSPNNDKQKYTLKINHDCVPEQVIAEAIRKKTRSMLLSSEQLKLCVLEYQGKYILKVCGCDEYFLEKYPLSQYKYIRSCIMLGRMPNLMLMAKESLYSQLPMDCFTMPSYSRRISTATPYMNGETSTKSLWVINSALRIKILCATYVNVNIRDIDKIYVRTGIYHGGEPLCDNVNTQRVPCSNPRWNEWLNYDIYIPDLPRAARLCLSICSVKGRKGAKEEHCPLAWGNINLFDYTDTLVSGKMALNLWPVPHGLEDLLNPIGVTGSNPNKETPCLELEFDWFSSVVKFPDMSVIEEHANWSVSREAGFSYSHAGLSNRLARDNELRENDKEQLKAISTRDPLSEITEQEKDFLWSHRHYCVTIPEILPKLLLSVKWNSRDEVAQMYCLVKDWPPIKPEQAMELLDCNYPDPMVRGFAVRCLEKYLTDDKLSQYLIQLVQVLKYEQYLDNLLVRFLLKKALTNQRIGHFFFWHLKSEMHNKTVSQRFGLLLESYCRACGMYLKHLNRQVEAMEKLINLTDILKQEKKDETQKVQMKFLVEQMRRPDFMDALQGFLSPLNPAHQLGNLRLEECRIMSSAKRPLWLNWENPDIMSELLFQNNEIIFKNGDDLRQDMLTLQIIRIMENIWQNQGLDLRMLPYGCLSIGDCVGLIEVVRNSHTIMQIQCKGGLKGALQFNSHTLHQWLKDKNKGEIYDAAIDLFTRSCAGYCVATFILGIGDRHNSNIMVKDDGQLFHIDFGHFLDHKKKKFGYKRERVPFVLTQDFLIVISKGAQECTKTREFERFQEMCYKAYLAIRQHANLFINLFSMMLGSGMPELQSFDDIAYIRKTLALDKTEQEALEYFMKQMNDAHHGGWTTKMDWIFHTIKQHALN
T1 sequence (P27986 whole entry partner): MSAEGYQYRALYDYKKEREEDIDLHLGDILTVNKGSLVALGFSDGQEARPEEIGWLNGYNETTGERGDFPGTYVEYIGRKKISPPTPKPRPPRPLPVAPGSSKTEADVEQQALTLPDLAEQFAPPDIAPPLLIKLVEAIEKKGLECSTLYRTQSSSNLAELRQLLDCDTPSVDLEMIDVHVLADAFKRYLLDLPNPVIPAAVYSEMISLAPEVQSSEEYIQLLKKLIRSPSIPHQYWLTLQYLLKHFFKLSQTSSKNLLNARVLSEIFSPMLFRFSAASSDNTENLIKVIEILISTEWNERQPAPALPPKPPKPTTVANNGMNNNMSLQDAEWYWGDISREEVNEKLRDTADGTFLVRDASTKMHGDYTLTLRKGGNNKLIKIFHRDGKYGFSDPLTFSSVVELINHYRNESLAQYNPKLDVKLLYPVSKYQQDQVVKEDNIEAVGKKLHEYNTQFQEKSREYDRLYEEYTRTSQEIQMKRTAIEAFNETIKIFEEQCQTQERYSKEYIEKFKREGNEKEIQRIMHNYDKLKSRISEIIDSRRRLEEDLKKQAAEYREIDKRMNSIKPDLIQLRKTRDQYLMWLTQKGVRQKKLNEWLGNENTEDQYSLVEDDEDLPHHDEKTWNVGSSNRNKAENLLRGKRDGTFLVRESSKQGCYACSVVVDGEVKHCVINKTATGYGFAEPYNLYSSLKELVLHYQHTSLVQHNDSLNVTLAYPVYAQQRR
T4 sequence (O00329 whole entry): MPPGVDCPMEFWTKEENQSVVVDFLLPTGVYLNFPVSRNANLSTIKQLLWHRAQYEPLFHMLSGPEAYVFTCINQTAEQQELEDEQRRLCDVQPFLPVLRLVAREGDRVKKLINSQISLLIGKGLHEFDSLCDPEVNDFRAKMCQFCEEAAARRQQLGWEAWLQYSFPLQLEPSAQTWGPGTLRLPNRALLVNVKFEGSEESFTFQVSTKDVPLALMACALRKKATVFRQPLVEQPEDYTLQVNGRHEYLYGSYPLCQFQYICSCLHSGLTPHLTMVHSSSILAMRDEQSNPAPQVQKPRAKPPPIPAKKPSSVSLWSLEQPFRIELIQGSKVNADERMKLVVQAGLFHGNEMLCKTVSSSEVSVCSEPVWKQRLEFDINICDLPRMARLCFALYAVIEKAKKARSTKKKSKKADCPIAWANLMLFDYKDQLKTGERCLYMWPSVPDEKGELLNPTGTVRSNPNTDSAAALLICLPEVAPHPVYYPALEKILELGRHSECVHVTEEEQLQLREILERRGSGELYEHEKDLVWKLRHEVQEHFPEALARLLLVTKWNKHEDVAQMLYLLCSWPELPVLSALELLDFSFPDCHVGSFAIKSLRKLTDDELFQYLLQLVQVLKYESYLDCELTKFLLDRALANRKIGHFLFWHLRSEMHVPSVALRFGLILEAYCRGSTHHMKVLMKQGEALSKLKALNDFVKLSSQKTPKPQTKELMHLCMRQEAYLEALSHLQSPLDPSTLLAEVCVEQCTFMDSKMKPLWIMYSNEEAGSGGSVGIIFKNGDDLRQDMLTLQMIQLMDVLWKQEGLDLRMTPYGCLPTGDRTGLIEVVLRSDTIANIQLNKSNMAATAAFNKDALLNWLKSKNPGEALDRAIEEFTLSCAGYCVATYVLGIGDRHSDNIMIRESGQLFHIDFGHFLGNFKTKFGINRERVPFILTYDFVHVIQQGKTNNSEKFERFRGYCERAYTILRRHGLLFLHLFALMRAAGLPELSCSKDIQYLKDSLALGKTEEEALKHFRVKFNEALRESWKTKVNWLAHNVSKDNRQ
T4 sequence (P27986 whole entry partner): as the sequence (P27986 whole entry partner) above

On to `CC1(C)C(=O)c2sc(N3CCOCC3)cc2C1(C)c1ccc(Cl)cc1` (racemic) [Compound 118, 4-(4-chlorophenyl)-4,5,5-trimethyl-2-morpholino-4H-cyclopenta[b]thiophen-6(5H)-one], for which the inhibition at 1.11 µM in test [1] amounted to 19.7%; in test [2], 63%; in test [3], 5.03%; in test [4] it was 54.6%; in test [5] it was 9.51%.

With `COC(=O)[C@@H]1C(=O)c2sc(-c3ccncc3)cc2[C@H]1c1ccc(Cl)cc1` (relative stereo) [Compound 29, trans-methyl 4-(4-chlorophenyl)-6-oxo-2-(pyridin-4-yl)-5,6-dihydro-4H-cyclopenta[b]thiophene-5-carboxylate], the inhibition at 1.11 µM in test [1] came to 6%; in test [2], 87.8%; in test [3], 4.6%; in test [4], 20.9%; in test [5], 1.4%. The IC50 (usually the concentration that inhibits the measured activity by half) in test [2] fell in the range of 100 to 1000 nM.

As for `O=S1(=O)NCC(O)(c2ccc(Cl)cc2)c2cc(-c3ccncc3)sc21` (single isomer, unassigned) [Compound 2, 4-(4-chlorophenyl)-6-pyridin-4-yl-3,4-dihydro-2H-thieno[3,2-e][1,2]thiazin-4-ol 1,1-dioxide], the PI3Kalpha % inh in test [1] is recorded as 3.200%. In test [2], the PI3Kbeta % inh is reported as 110.400% and the IC50 is below 100 nM. Moreover, the PI3Kgamma % inh in test [3] is 21.200%. Besides, the PI3Kdelta % inh in test [4] worked out at 63.100%. In addition, the VPS34 % ihn in test [5] was found to be 4.300%.

With `O=S1(=O)NCC(O)(c2ccc(Cl)cc2)c2cc(-c3ccncc3)sc21` (single isomer, unassigned) [Compound 9, 4-(4-chlorophenyl)-6-pyridin-4-yl-3,4-dihydro-2H-thieno[3,2-e][1,2]thiazin-4-ol 1,1-dioxide], in test [1], the inhibition at 1.11 µM came to 3.6%. Also, in test [2], the PI3Kbeta % inh is given as 67.200% and the IC50 was 100 to 1000 nM. For the same compound, the PI3Kgamma % inh in test [3] is on record as 3.300%. Further, the PI3Kdelta % inh in test [4] was 41.900%. Besides, the VPS34 % ihn in test [5] is on record as −2.200%.

For `O=C1NCCC(c2ccc(Cl)cc2)c2cc(-c3ccncc3)sc21` (single isomer, unassigned) [Compound 21, 4-(4-chlorophenyl)-2-pyridin-4-yl-4,5,6,7-tetrahydro-8H-thieno[2,3-c]azepin-8-one], the inhibition at 1.11 µM in test [1] came to 6.07%. Also, in test [2], the PI3Kbeta % inh is on record as 111.967% and the IC50 was below 100 nM. In addition, the PI3Kgamma % inh in test [3] was 24.700%. Moreover, the PI3Kdelta % inh in test [4] turned out to be 79.150%. Moreover, the inhibition at 1.11 µM in test [5] came to 9.1%.

In test [1], `O=C1CCC(c2ccc(Cl)cc2)c2cc(-c3ccncc3)sc21` (single isomer, unassigned) [Compound 22, 4-(4-chlorophenyl)-2-pyridin-4-yl-5,6-dihydro-1-benzothiophen-7(4H)-one] displayed a PI3Kalpha % inh of 0.600%. In test [2], this compound returned a PI3Kbeta % inh of 97.500%. Moreover, in test [2], the IC50 is below 100 nM. Moreover, the inhibition at 1.11 µM in test [3] amounted to 14.2%; in test [4] it was 44.5%; in test [5] it was 4.4%.

`O=C1NCCC(c2ccc(Cl)cc2)c2cc(-c3ccncc3)sc21` (single isomer, unassigned) [Compound 25, 4-(4-chlorophenyl)-2-pyridin-4-yl-4,5,6,7-tetrahydro-8H-thieno[2,3-c]azepin-8-one] came in with a PI3Kalpha % inh in test [1] of 3.700%. Further, in test [2], the PI3Kbeta % inh was 69.800% and the 50% inhibitory concentration (IC50) lay in the range of 100 to 1000 nM. Besides, the PI3Kgamma % inh in test [3] is 4.500%. In test [4], the PI3Kdelta % inh was determined as 31.200%. For the same compound, in test [5], the VPS34 % ihn amounted to 10.900%.

As for `CC(=O)Nc1cc(-c2cc3c(s2)C(=O)NCCC3c2ccc(Cl)cc2)ccn1` (centres unmarked) [Compound 1, N-{4-[4-(4-chlorophenyl)-8-oxo-5,6,7,8-tetrahydro-4H-thieno[2,3-c]azepin-2-yl]pyridin-2-yl}acetamide], the inhibition at 1.11 µM in test [1] amounted to 49.8%; in test [2] it was 100%; in test [3], 63.4%; in test [4], 103%; in test [5], 29.3%. Also, the half-maximal inhibitory concentration (IC50) in test [2] is below 100 nM.

`Clc1ccc(C2CCc3cn[nH]c3-c3sc(-c4ccncc4)cc32)cc1` (centres unmarked) [Compound 6, 6-(4-chlorophenyl)-8-pyridin-4-yl-1,4,5,6-tetrahydrothieno[3′,2′:6,7]cyclohepta[1,2-c]pyrazole]: the inhibition at 1.11 µM in test [1] came out at 27%; in test [2] it was 97.9%; in test [3] it was 14%; in test [4], 70.7%; in test [5], 10.1%. In test [2], the IC50 is below 100 nM.

As for `CC(=O)Nc1cc(-c2cc3c(s2)C(=O)CCC3c2ccc(Cl)cc2)ccn1` (centres unmarked) [Compound 7, N-{4-[4-(4-chlorophenyl)-7-oxo-4,5,6,7-tetrahydro-1-benzothien-2-yl]pyridin-2-yl}acetamide], the inhibition at 1.11 µM turned out to be 20.5% in test [1]; 64.6% in test [2]; 6.5% in test [3]; 91.3% in test [4]; 9.6% in test [5]. For the same compound, the IC50 in test [2] fell in the range of 100 to 1000 nM.

For the compound `CC1(C)CC(=O)c2sc(-c3ccncc3)cc2C1c1ccc(Cl)cc1` (centres unmarked) [Compound 10, 4-(4-chlorophenyl)-5,5-dimethyl-2-pyridin-4-yl-5,6-dihydro-1-benzothiophen-7(4H)-one], the inhibition at 1.11 µM in test [1] was 0.2%; in test [2] it was 71%; in test [3], 6.7%; in test [4] it was 32.4%; in test [5], 0.1%. In test [2], the IC50 lay within 100 to 1000 nM.
